{"source": "the supplement of paper PMC10307832", "assay_in_all_cases": "relative viability (nuclei count vs DMSO), 5 days (fraction); higher = more cells survive", "key": {"Indole-3-carbinol": {"compound": "OCc1c[nH]c2ccccc12 [Indole-3-carbinol]", "procedure,_shortened": "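Viability was defined as treated-well nuclei divided by vehicle-well nuclei, with the median taken over replicate plates. Cells from lung cancer lines sat overnight at 37 °C in 1536-well plates, received five √10-spaced library-drug doses by pinning on vehicle-anchored plates, and grew 5 days without medium change before one-step fixation, permeabilisation and Hoechst staining, 4× imaging and MetaXpress nuclear counts. Only plates with control CV under 25% and at least one doubling were kept.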"}, "[1]": {"compound": "OCc1c[nH]c2ccccc12 [Indole-3-carbinol] + CC(C)C[C@H](NC(=O)[C@H](Cc1ccccc1)NC(=O)c1cnccn1)B(O)O [Bortezomib] (partner 0.002 µM)", "procedure,_shortened": "(§1)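 Relative viability divides the nuclei count in treated wells by that in vehicle wells. Lung cancer cell lines were seeded in 1536-well plates, dosed by pin tool the next day, and fixed and stained after 5 days in one step with final 0.05% Triton X-100, 1% formaldehyde and 1 ug/ml Hoechst. Dosing was a single drug or a fixed anchor-drug dose plus five library-drug doses (not always all listed) in √10 steps, and values are medians of duplicate plates imaged at 4×.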"}, "[2]": {"compound": "OCc1c[nH]c2ccccc12 [Indole-3-carbinol] + CS(=O)(=O)N1CCN(Cc2cc3nc(-c4cccc5[nH]ncc45)nc(N4CCOCC4)c3s2)CC1 [Pictilisib] (partner 1 µM)", "procedure,_shortened": "as §1"}, "[3]": {"compound": "OCc1c[nH]c2ccccc12 [Indole-3-carbinol] + CC1(C)CCC(c2ccc(Cl)cc2)=C(CN2CCN(c3ccc(C(=O)NS(=O)(=O)c4ccc(N[C@H](CCN5CCOCC5)CSc5ccccc5)c(S(=O)(=O)C(F)(F)F)c4)cc3)CC2)C1 [Navitoclax] (partner 0.5 µM)", "procedure,_shortened": "as §1"}, "[4]": {"compound": "OCc1c[nH]c2ccccc12 [Indole-3-carbinol] + COc1cc2c(Oc3ccc(NC(=O)C4(C(=O)Nc5ccc(F)cc5)CC4)cc3F)ccnc2cc1OCCCN1CCOCC1 [Foretinib] (partner 0.25 µM)", "procedure,_shortened": "as §1"}, "[5]": {"compound": "OCc1c[nH]c2ccccc12 [Indole-3-carbinol] + O=C(c1cc(Cc2n[nH]c(=O)c3ccccc23)ccc1F)N1CCN(C(=O)C2CC2)CC1 [Olaparib] (partner 8 µM)", "procedure,_shortened": "as §1"}, "[6]": {"compound": "OCc1c[nH]c2ccccc12 [Indole-3-carbinol] + CS(=O)(=O)CCNCc1ccc(-c2ccc3ncnc(Nc4ccc(OCc5cccc(F)c5)c(Cl)c4)c3c2)o1 [Lapatinib] (partner 2 µM)", "procedure,_shortened": "as §1"}, "[7]": {"compound": "OCc1c[nH]c2ccccc12 [Indole-3-carbinol] + C[C@@H](Oc1cc(-c2cnn(C3CCNCC3)c2)cnc1N)c1c(Cl)ccc(F)c1Cl [Crizotinib] (partner 1 µM)", "procedure,_shortened": "as §1"}, "[8]": {"compound": "OCc1c[nH]c2ccccc12 [Indole-3-carbinol] + C[C@]1(O)C[C@@H](c2nc(-c3ccc4ccc(-c5ccccc5)nc4c3)c3c(N)nccn32)C1 [Linsitinib] (partner 1 µM)", "procedure,_shortened": "as §1"}, "[9]": {"compound": "OCc1c[nH]c2ccccc12 [Indole-3-carbinol] + Cc1nc(NC(=O)N2CCC[C@H]2C(N)=O)sc1-c1ccnc(C(C)(C)C(F)(F)F)c1 [Alpelisib] (partner 2 µM)", "procedure,_shortened": "as §1"}, "[10]": {"compound": "OCc1c[nH]c2ccccc12 [Indole-3-carbinol] + N=C(N)NC(=N)NCCc1ccccc1 [Phenformin] (partner 250 µM)", "procedure,_shortened": "as §1"}, "[11]": {"compound": "OCc1c[nH]c2ccccc12 [Indole-3-carbinol] + Cc1nc(Nc2ncc(C(=O)Nc3c(C)cccc3Cl)s2)cc(N2CCN(CCO)CC2)n1 [Dasatinib] (partner 0.075 µM)", "procedure,_shortened": "as §1"}, "[12]": {"compound": "OCc1c[nH]c2ccccc12 [Indole-3-carbinol] + CCNC(=O)c1noc(-c2cc(C(C)C)c(O)cc2O)c1-c1ccc(CN2CCOCC2)cc1 [Luminespib] (partner 0.01 µM)", "procedure,_shortened": "as §1"}, "[13]": {"compound": "OCc1c[nH]c2ccccc12 [Indole-3-carbinol] + Cc1cc(Nc2cc(N3CCN(C)CC3)nc(Sc3ccc(NC(=O)C4CC4)cc3)n2)n[nH]1 [Tozasertib] (partner 0.1 µM)", "procedure,_shortened": "as §1"}, "[14]": {"compound": "OCc1c[nH]c2ccccc12 [Indole-3-carbinol] + COc1cccc2cc(-c3nc([C@H]4CC[C@H](C(=O)O)CC4)n4ncnc(N)c34)[nH]c12 [OSI-027] (partner 0.5 µM)", "procedure,_shortened": "as §1"}}}
{"cell line": "Calu-6", "values": [{"measurement": "relative viability", "setting": "Indole-3-carbinol; 0.253 µM", "value": 1.07}, {"measurement": "relative viability", "setting": "Indole-3-carbinol; 0.8 µM", "value": 0.994}, {"measurement": "relative viability", "setting": "Indole-3-carbinol; 2.53 µM", "value": 1}, {"measurement": "relative viability", "setting": "Indole-3-carbinol; 8 µM", "value": 0.914}, {"measurement": "relative viability", "setting": "[1]; first compound 0.253 µM", "value": 1.08}, {"measurement": "relative viability", "setting": "[1]; first compound 0.8 µM", "value": 1.1}, {"measurement": "relative viability", "setting": "[1]; first compound 2.53 µM", "value": 1.01}, {"measurement": "relative viability", "setting": "[1]; first compound 8 µM", "value": 0.966}, {"measurement": "relative viability", "setting": "[2]; first compound 0.253 µM", "value": 0.887}, {"measurement": "relative viability", "setting": "[2]; first compound 0.8 µM", "value": 1.05}, {"measurement": "relative viability", "setting": "[2]; first compound 2.53 µM", "value": 0.916}, {"measurement": "relative viability", "setting": "[2]; first compound 8 µM", "value": 0.865}, {"measurement": "relative viability", "setting": "[3]; first compound 0.253 µM", "value": 0.836}, {"measurement": "relative viability", "setting": "[3]; first compound 0.8 µM", "value": 0.947}, {"measurement": "relative viability", "setting": "[3]; first compound 2.53 µM", "value": 0.889}, {"measurement": "relative viability", "setting": "[3]; first compound 8 µM", "value": 0.648}, {"measurement": "relative viability", "setting": "[4]; first compound 0.253 µM", "value": 0.927}, {"measurement": "relative viability", "setting": "[4]; first compound 0.8 µM", "value": 0.941}, {"measurement": "relative viability", "setting": "[4]; first compound 2.53 µM", "value": 0.842}, {"measurement": "relative viability", "setting": "[4]; first compound 8 µM", "value": 0.841}, {"measurement": "relative viability", "setting": "[5]; first compound 0.253 µM", "value": 0.615}, {"measurement": "relative viability", "setting": "[5]; first compound 0.8 µM", "value": 0.629}, {"measurement": "relative viability", "setting": "[5]; first compound 2.53 µM", "value": 0.59}, {"measurement": "relative viability", "setting": "[5]; first compound 8 µM", "value": 0.536}, {"measurement": "relative viability", "setting": "[6]; first compound 0.253 µM", "value": 1.03}, {"measurement": "relative viability", "setting": "[6]; first compound 0.8 µM", "value": 1.12}, {"measurement": "relative viability", "setting": "[6]; first compound 2.53 µM", "value": 1.05}, {"measurement": "relative viability", "setting": "[6]; first compound 8 µM", "value": 0.94}, {"measurement": "relative viability", "setting": "[7]; first compound 0.253 µM", "value": 0.759}, {"measurement": "relative viability", "setting": "[7]; first compound 0.8 µM", "value": 0.863}, {"measurement": "relative viability", "setting": "[7]; first compound 2.53 µM", "value": 0.871}, {"measurement": "relative viability", "setting": "[7]; first compound 8 µM", "value": 0.742}, {"measurement": "relative viability", "setting": "[8]; first compound 0.253 µM", "value": 0.974}, {"measurement": "relative viability", "setting": "[8]; first compound 0.8 µM", "value": 0.88}, {"measurement": "relative viability", "setting": "[8]; first compound 2.53 µM", "value": 1.07}, {"measurement": "relative viability", "setting": "[8]; first compound 8 µM", "value": 0.92}, {"measurement": "relative viability", "setting": "[9]; first compound 0.253 µM", "value": 1.04}, {"measurement": "relative viability", "setting": "[9]; first compound 0.8 µM", "value": 0.966}, {"measurement": "relative viability", "setting": "[9]; first compound 2.53 µM", "value": 0.819}, {"measurement": "relative viability", "setting": "[9]; first compound 8 µM", "value": 0.922}]}
{"cell line": "NCI-H1623", "values": [{"measurement": "relative viability", "setting": "Indole-3-carbinol; 0.253 µM", "value": 0.924}, {"measurement": "relative viability", "setting": "Indole-3-carbinol; 0.8 µM", "value": 1.02}, {"measurement": "relative viability", "setting": "Indole-3-carbinol; 2.53 µM", "value": 0.984}, {"measurement": "relative viability", "setting": "Indole-3-carbinol; 8 µM", "value": 0.978}, {"measurement": "relative viability", "setting": "[10]; first compound 0.253 µM", "value": 0.725}, {"measurement": "relative viability", "setting": "[10]; first compound 0.8 µM", "value": 0.611}, {"measurement": "relative viability", "setting": "[10]; first compound 2.53 µM", "value": 0.571}, {"measurement": "relative viability", "setting": "[10]; first compound 8 µM", "value": 0.551}, {"measurement": "relative viability", "setting": "[4]; first compound 0.253 µM", "value": 0.881}, {"measurement": "relative viability", "setting": "[4]; first compound 0.8 µM", "value": 0.989}, {"measurement": "relative viability", "setting": "[4]; first compound 2.53 µM", "value": 0.803}, {"measurement": "relative viability", "setting": "[4]; first compound 8 µM", "value": 0.858}, {"measurement": "relative viability", "setting": "[11]; first compound 0.253 µM", "value": 0.531}, {"measurement": "relative viability", "setting": "[11]; first compound 0.8 µM", "value": 0.566}, {"measurement": "relative viability", "setting": "[11]; first compound 2.53 µM", "value": 0.539}, {"measurement": "relative viability", "setting": "[11]; first compound 8 µM", "value": 0.577}, {"measurement": "relative viability", "setting": "[12]; first compound 0.253 µM", "value": 0.425}, {"measurement": "relative viability", "setting": "[12]; first compound 0.8 µM", "value": 0.543}, {"measurement": "relative viability", "setting": "[12]; first compound 2.53 µM", "value": 0.532}, {"measurement": "relative viability", "setting": "[12]; first compound 8 µM", "value": 0.529}, {"measurement": "relative viability", "setting": "[13]; first compound 0.253 µM", "value": 0.467}, {"measurement": "relative viability", "setting": "[13]; first compound 0.8 µM", "value": 0.486}, {"measurement": "relative viability", "setting": "[13]; first compound 2.53 µM", "value": 0.39}, {"measurement": "relative viability", "setting": "[13]; first compound 8 µM", "value": 0.453}, {"measurement": "relative viability", "setting": "[14]; first compound 0.253 µM", "value": 0.412}, {"measurement": "relative viability", "setting": "[14]; first compound 0.8 µM", "value": 0.443}, {"measurement": "relative viability", "setting": "[14]; first compound 2.53 µM", "value": 0.424}, {"measurement": "relative viability", "setting": "[14]; first compound 8 µM", "value": 0.436}]}
